In patent US4510136A (priority 1983, dated 1985):

Key:
[1] = test system: Puccinia recondita var. tritici; assay: Wheat leaf rust control on sprayed wheat seedlings (Example 79); assay type: in vivo; details: Puccinia recondita, 168 h; for pest or weed control at 100 ppm: 100 ppm spray, day before inoculation
Summary of the method: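 Wheat seedlings were sprayed to run-off with 100 ppm compound suspended in water with 6% acetone and 250 ppm TREM 014 surfactant. Next day they were inoculated with Puccinia recondita var. tritici spores and held 24 h at saturated humidity, 20°. Rust pustules were rated after a further 7 days in a growth room.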

[2] = test system: Erysiphe cichoracearum; assay: Cucumber powdery mildew control on sprayed cucumber seedlings (Example 80); assay type: in vivo; details: Golovinomyces cichoracearum, 168 h; for pest or weed control at 100 ppm: 100 ppm spray, day before inoculation
[3] = test system: Venturia inaequalis; assay: Apple scab control on sprayed apple seedlings (Example 82); assay type: in vivo; details: Venturia inaequalis; for pest or weed control at 100 ppm: 100 ppm spray, day before inoculation
[4] = test system: Helminthosporium maydis; assay: Southern corn leaf blight control on sprayed corn seedlings (Example 83); assay type: in vivo; details: Bipolaris maydis, 192 h, 100 ppm spray, day before inoculation
Summary of the method: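 Compounds in 6% acetone at 100 ppm in water with 250 ppm TREM 014 surfactant, sprayed to run-off on corn seedlings; next day inoculated with spore suspension. 24 h at saturated humidity and 20°, then 7 days in growth room before disease rating; phytotoxicity scored as growth reduction.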

[5] = test system: Cercospora arachidicola; assay: Peanut early leafspot control on sprayed peanut seedlings (Example 84); assay type: in vivo; details: Mycosphaerella arachidis, 360 h, 100 ppm spray, day before inoculation; read-out: % Control Peanut Easly Leafspot
[6] = test system: Pyricularia oryzae; assay: whole plant or invertebrate; assay type: in vivo; details: Pyricularia oryzae, 168 h, read-out: % Control of Rice Blast, 100 ppm spray, day before inoculation
[7] = test system: Phytophthora infestans; assay: whole plant or invertebrate; assay type: in vivo; details: Phytophthora infestans, in Solanum lycopersicum, 168 h, read-out: % Control of Tomato Late Blight, 100 ppm spray, day before inoculation
[8] = test system: Pythium aphanadermatum; assay: Pythium control on cotton, seed coating (Example 91); assay type: in vivo; details: 168 h; for pest or weed control at 2 g/kg seed: 2 gm/kg seed
Summary of the method: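 Cotton seeds coated with formulated compound at 2 gm/kg seed, air dried, and planted in soil amended with Pythium aphanadermatum, sand and corn meal. Held 1 week at room temperature before disease rating.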

[9] = test system: Pythium aphanadermatum; assay: Pythium control on corn, seed coating (Example 92); assay type: in vivo; details: 504 h, 2 gm/kg seed
Experimental: Several compounds of the previous examples were incorporated into a proprietary formulation and used to coat corn seeds at a rate of 2 gm/kg seed. After being thoroughly coated, the seeds were allowed to air dry at room temperature. The seeds were then planted into soil amended with a mixture of the fungus Pythium aphanadermatum, sand, and corn meal at a rate sufficient to kill most untreated seeds. The seeds were held at 49° F. for 2 weeks and then at 70° F. for 1 additional week. After this time disease ratings were made.

[10] = test system: corn seedlings; assay: Phytotoxicity on corn seedlings (Example 83); assay type: in vivo; parameters: key: G = growth reduction; H = hormonal effects; details: 100 ppm spray
Experimental: The compounds of the previous examples were again dissolved in acetone in an amount equal to 6% of the final volume and then suspended at a concentration of 100 ppm in purified water containing 250 ppm of the surfactant TREM 014 (polyhydric alcohol esters). These suspensions were sprayed to the point of run-off on corn seedlings. The following day, the plants were inoculated with a spore suspension of Helminthosporium maydis, causal agent of southern corn leaf blight, and incubated in a saturated humidity chamber at 20° for 24 hours and then in a growth room for an additional 7 days, when disease ratings were made. Treated plants from successful treatments had few or no lesions while the untreated plants had numerous lesions on each leaf. Phytotoxicity expressed as growth reduction was observed on some of the plants in association with disease control.

[11] = test system: Erysiphe graminis; assay: Barley powdery mildew control on sprayed barley seedlings (Example 81); assay type: in vivo; details: Blumeria graminis, 168 h; for pest or weed control at 100 ppm: 100 ppm spray, day before inoculation
Experimental: The compounds of the previous examples were again dissolved in acetone in an amount equal to 6% of the final volume and then suspended at a concentration of 100 ppm in purified water containing 250 ppm of the surfactant TREM 014 (polyhydric alcohol esters). These suspensions were sprayed to the point of run-off on barley seedlings. The following day, the plants were inoculated with a spore suspension of the fungus Erysiphe graminis, causal agent of barley powdery mildew, and incubated in growth room for 7 days. Disease ratings were then made. Treated plants from successful treatments had little or no powdery mildew in contrast to untreated plants which were covered with powdery mildew.

[12] = test system: apple seedlings; assay: Phytotoxicity on apple seedlings (Example 82); assay type: in vivo; parameters: key: G = growth reduction; C = chlorosis; B = burn
Experimental: These suspensions were sprayed to the point of run-off on apple seedlings. The following day, the plants were inoculated with a spore suspension of the fungus Venturia inaequalis, causal agent of apple scab, and incubated in a saturated humidity chamber at 20° for 24 hours and then in a growth room for an additional 10-12 days. Treated plants from successful treatments had fewer apple scab lesions when compared to untreated plants which were covered with scab lesions. Phytotoxicity expressed as growth reduction was observed on some of the plants in association with disease control.

[13] = test system: Monilinia fructicola; assay: Stone fruit brown rot control on dipped canned peach halves (Example 86); details: 120 h, 100 ppm dip, percent growth inhibition of colonies after five days
Summary of the method: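 Canned peach halves were dipped 3 min in a 100 ppm compound suspension (5% acetone, 700 ppm TREM 014 surfactant in water) and air-dried. Each was inoculated with two Monilinia fructicola mycelium pieces and incubated 5 days in sterile containers. Colony radii were measured, and percent control was expressed as growth inhibition versus untreated peaches.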

[14] = test system: Rhizoctonia solani; assay: Rice sheath blight control on sprayed rice seedlings (Example 87); assay type: in vivo; details: Rhizoctonia solani, 168 h, 100 ppm spray, day before inoculation
Summary of the method: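 Rice seedlings were sprayed to run-off with 100 ppm compound suspended in water with 6% acetone and 250 ppm TREM 014 surfactant. They were inoculated next day with bran plus R. solani mycelium. Sheath blight was rated after 7 days in a growth room.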

[15] = test system: 5 Phytophthora species; assay type: cell-based; details: 200.0 ppm in V-8 agar, 22° C., 6 days
[16] = test system: bean seedlings; assay: Phytotoxicity on bean seedlings (Example 85); assay type: in vivo; parameters: key: G = growth reduction; H = hormonal effects; details: 80 ppm spray
[17] = test system: cucumber seedlings; assay: Phytotoxicity on cucumber seedlings (Example 80); assay type: in vivo; parameters: key: G = growth reduction; H = hormonal effects; details: 100 ppm spray
Summary of the method: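 Cucumber seedlings sprayed to run-off with 100 ppm compound suspension (6% acetone, 250 ppm TREM 014 surfactant), inoculated next day with Erysiphe cichoracearum spores, then held 7 days in a growth room before disease rating. Phytotoxicity scored as growth reduction or hormonal effects.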

| Compound | pest or weed control at 100 ppm [1] [%] | pest or weed control at 100 ppm [2] [%] | pest or weed control at 100 ppm [3] [%] | pest or weed control at 100 ppm [4] [%] | pest or weed control at 100 ppm [5] [%] | pest or weed control at 100 ppm [6] [%] | pest or weed control at 100 ppm [7] [%] | pest or weed control at 100 ppm [11] [%] | inhibition of growth at 100 µg/mL [13] [%] | pest or weed control at 100 ppm [14] [%] | No. of 5 Phytophthora species controlled in vitro [15] | pest or weed control at 2 g/kg seed [8] [%] | Phytotoxicity on bean [16] | Phytotoxicity on cucumber [17] | further results |
| --- | --- | --- | --- | --- | --- | --- | --- | --- | --- | --- | --- | --- | --- | --- | --- |
| C[Si](C)(Cn1cncn1)c1ccc(Cl)cc1 [(4-Chlorophenyl)dimethyl(1H-1,2,4-triazol-1-ylmethyl)silane] | 100 | 100 | 100 | 0 | 90 | 0 | 0 |  |  |  |  |  |  |  | pest or weed control at 0.5 g/kg seed ([8]; 0.5 gm/kg seed): 53%; pest or weed control at 2 g/kg seed [9]: 8%; Phytotoxicity on corn [10]: G |
| CCCCCCCCCCCC[Si](C)(C)Cn1cncn1 [Dodecyl(dimethyl)(1H-1,2,4-triazol-1-ylmethyl)silane] |  |  |  | 0 |  |  |  |  |  |  |  |  |  |  | pest or weed control at 200 ppm ([1]; applied at 200 ppm): 100%; pest or weed control at 400 ppm ([2]; applied at 400 ppm): 60%; pest or weed control at 200 ppm ([11]; applied at 200 ppm): 100%; pest or weed control at 400 ppm ([3]; applied at 400 ppm): 40%; Phytotoxicity on apple ([12]; applied at 400 ppm): B |
| C[Si](Cn1cncn1)(c1ccc(Cl)cc1)c1ccc(Cl)cc1 [bis(4-Chlorophenyl)methyl(1H,-1,2,4-triazol-1-ylmethyl)silane] | 90 | 100 | 100 | 80 | 100 | 90 | 0 | 100 | 95 | 0 | 0 | 0 | G |  |  |
| C[Si](C)(Cn1cncn1)c1ccc(F)cc1 [Dimethyl(4-fluorophenyl)(1H-1,2,4-triazol-1-ylmethyl)silane] | 100 | 100 | 80 | 90 | 50 | 0 | 0 |  |  | 0 |  |  |  | G | Phytotoxicity on apple ([12]; 100 ppm spray): C |
| C[Si](C)(Cn1cncn1)c1ccc(Cl)cc1Cl [(2,4-Dichlorophenyl)dimethyl(1H-1,2,4-triazol-1-ylmethyl)silane] | 90 | 100 | 100 | 90 | 100 | 0 | 0 | 100 | 100 | 0 | 0 | 0 | G | H |  |
